According to patent US11801307B2, “Antibody-polymer-drug conjugates” (priority 2016, dated 2023):
“Also recorded” adds a separate entry of the source.

Assays:
CD20 = molecular target: T1, CD20 (Homo sapiens, UniProt P11836); assay: RTX-Cy5 binding on the surface of Ramos cells, with and without RTX pre-blocking
T1 construct: host or cells: Ramos Burkitt's lymphoma cells
T1 sequence (P11836 1-297): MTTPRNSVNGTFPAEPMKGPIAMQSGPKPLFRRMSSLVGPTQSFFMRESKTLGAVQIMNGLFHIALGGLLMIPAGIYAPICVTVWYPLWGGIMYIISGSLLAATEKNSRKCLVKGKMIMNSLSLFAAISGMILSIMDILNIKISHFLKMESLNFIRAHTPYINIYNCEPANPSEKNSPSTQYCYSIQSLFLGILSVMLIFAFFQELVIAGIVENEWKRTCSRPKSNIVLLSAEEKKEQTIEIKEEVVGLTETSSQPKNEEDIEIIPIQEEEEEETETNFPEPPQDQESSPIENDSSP
Description: Non-treated, cells in culture medium; RTX-Cy5, Ramos cells (2×10^5) were treated with 1 μg RTX-Cy5 at 4° C. for 30 min; RTX Blocked+RTX-Cy5, after pre-blocking by 10 μg RTX at 4° C. for 30 min, 1 μg RTX-Cy5 was added and incubated at 4° C. for 30 min. The cells were analyzed by flow cytometry. Data are reported as MFI, mean fluorescence intensity.
To ensure CD-20 antigen expression on the surface of the Ramos cells used, the Ramos cells were exposed to RTX labeled with Cy5 (RTX-Cy5). […] This confirmed the expression of CD20 on the surface of the Ramos cells, and their specific binding affinity to RTX.

[1] = tested on: Ramos B-cell lymphoma tumors; details: i.v., 4 doses at 3-day intervals, 20 mg/kg RTX or equivalent (EPI 1.5 mg/kg)
Description: Ramos cells (5×10^6) in 200 μl of PBS were subcutaneously inoculated in the right flank of 7- to 9-wk-old male NOD SCID mice. Tumor size was measured with a caliper, and tumor volume was calculated according to the formula: Tumor volume (mm^3)=½×length×[…], where the length (mm) is the longest and the width (mm) is the shortest dimension of the tumor. When the average tumor size reached 150±50 mm^3, treatment was initiated (n=4-5). […] Body weight variation was computed by the equation: variation=(WDayn−WDay0)/WDay0×100%. […] Saline was used as non-treated control. […] The data are presented as mean±SD (n=4-5).
NOD SCID mice were subcutaneously implanted with Ramos cells (5×10^6 cells/200 μl saline) into the right flank. […] Saline was injected as control. […] Mice were treated with 4 doses at 3-day intervals.
In addition, body weight of the mice was closely recorded during and after treatment. […] Four-doses were administered on days 11, 14, 17 and 20.

Ramos cells = assay: In vitro cytotoxicity toward Ramos cells, CCK-8 assay; type: cell-based, human; details: 48 h
Description: The cytotoxicity of antibody and antibody-polymer-drug conjugates against Ramos cells was measured by CCK-8 assay (Dojindo). The cells were seeded in 96-well plates at the density of 10,000 cells (200 μl) per well in RMPI-1640 media containing 10% FBS. After 24 h, RTX, RTX-EPI RTX-P-EPI, mixture of RTX with P-EPI and IgG-P-EPI (0.3 mg/ml×15 μl for antibody) in medium was added and incubated at 37° C. for 48 h. The number of viable cells was estimated using CCK-8 kit according to the manufacturer's protocol. In brief, 50 μl 5× diluted CCK-8 solution was added and incubated at 37° C., 5% CO2 for 4 h, the absorbance was measured using a microplate reader at 450 nm (630 nm as reference). Untreated control cells were set as 100% viable.
The cytotoxicity of RTX-P-EPI against Ramos cells was first evaluated at the concentration of 0.15 μM (related to RTX). Unconjugated RTX, non-specific conjugate IgG-P-EPI and directly conjugated with free drug (RTX-EPI) were used as controls. The Ramos cells were incubated with the samples for 48 h and evaluated by CCK-8 assay (FIG. 6).
10^4 Ramos cells were seeded in each well of 96-well plates in 200 μl RPMI-1640 media containing 10% FBS. Different samples (0.3 mg/ml×15 μl) were added and incubated at 37° C. in a humidified atmosphere of 5% CO2 (v/v). After 48 h, the number of viable cells was estimated using CCK-8 kit at 450 nm (630 nm as reference). […]

[2] = Blood pharmacokinetics of 125I-labeled conjugates; type: in vivo, male NOD SCID mice; details: i.v. 3.5 mg/kg single dose
Description: The conjugates were radioiodinated by the Iodogen method as previously described (Liu et al., 2009). 7-9 week-old healthy male NOD/SCID mice (n=3) were intravenously injected with ^125I labeled RTX, RTX-P-EPI or IgG-P-EPI conjugates (0.1 mg, 20 μCi per mouse), respectively. At predetermined intervals, blood samples (10 μl) were taken from the tail vein, and the radioactivity of each sample was measured with Gamma Counter (Packard).
The pharmacokinetic properties of ^125I labeled RTX, RTX-P-EPI and IgG-P-EPI were evaluated in male NOD SCID mice. Antibody was radiolabeled by ^125I and i.v. injected at 3.5 mg/kg (based on antibody for RTX, RTX-P-EPI, and IgG-P-EPI) single dose.

low-grade NHL = details: disease progression or relapse after prior RTX; cited from earlier work
[3] = Biodistribution of 125I-labeled conjugates in mice bearing s.c. Ramos tumors; type: in vivo, male NOD SCID mice; details: 72 h after intravenous injection
Description: For biodistribution study, 7-9 week-old male NOD SCID mice bearing s.c. Ramos tumors received intravenous injection of ^125I labeled RTX, RTX-P-EPI, or IgG-P-EPI (0.1 mg, 20 μCi per mouse). At 72 and 96 h after administration, the mice were sacrificed. Various tissues (heart, liver, spleen, lung, kidney, stomach, intestine, muscle, bone, brain and tumor) were harvested, weighed, and counted for radioactivity with Gamma Counter (Packard). Uptake of the conjugate was calculated as the percentage of the injected dose per gram of tissue (% ID/g). Data are presented as mean±standard deviation (n=3).
The biodistribution of RTX, RTX-P-EPI and IgG-P-EPI labeled by ^125I in male NOD SCID mice bearing s.c. xenograft tumor model was also compared.

Raji cells = assay: Apoptosis induction in Raji cells, Annexin V/PI staining; type: cell-based, human; details: RTX alone
Description: Incubation time was 48 h.
Percentage of apoptotic cells was quantified by flow cytometry. All data are presented as mean±SD (n=3).
This raises the likelihood that this system will be efficient in the treatment of RTX-resistant disease.

[4] = tested on: A2780 human ovarian carcinoma xenografts; details: 5 mg/kg EPI equivalent, day 20, s.c. model; cited from earlier work
[5] = free drug; cited from earlier work

Compound: RTX-Cy5
- Cy5 signal of Ramos cells incubated with RTX-Cy5 (CD20; 1 μg RTX-Cy5, 4° C., 30 min): high Cy5 signal
- Cy5 signal after CD20 receptors were blocked with over-saturation dose of RTX (CD20; pre-blocking by 10 μg RTX, then 1 μg RTX-Cy5): no Cy5 signal detectable

Compound: RTX-EPI: control conjugate in which EPI was directly attached to RTX via maleimide, EPI/RTX 3.1
- antitumor effect (in words) [1]: marginal effects
- kill of Ramos cells (Ramos cells; 0.15 μM (related to RTX)): 18%

Compound: Rituximab [RTX, reference compound]
- AUC (total area under the blood concentration versus time curve) [2]: 716.46 ± 66.64 % ID h/mL
- patients responding to RTX re-treatment (low-grade NHL): 40%
- antitumor effect (in words) [1]: marginal effects
- level in the tumor [3]: 0.71 % ID/g tissue
- change of apoptosis level on increase of antibody concentration from 0.2 μM to 2 μM (Raji cells): did not significantly enhance the apoptosis level; also recorded: did not increase
- cytotoxicity against Ramos cells (in words) (Ramos cells; 0.15 μM): nearly undetectable

Compound: COc1cccc2c1C(=O)c1c(O)c3c(c(O)c1C2=O)C[C@@](O)(C(=O)CO)C[C@@H]3O[C@H]1C[C@H](N)[C@@H](O)[C@H](C)O1 [EPI, epirubicin]
- tumor size relative to baseline [4]: 1772±840 % of the baseline
- terminal half-life [5]: 9 to 20 min
